Source: PubChem BioAssay AID328 (DTP/NCI, 2004)
Where “and” joins values, the source holds several entries; their conditions need not be identical. Equal entries are not always repeated. Inconclusive results and toxic doses are left out.

Test system: BDF1 mice, P388 leukemia ip, median survival T/C
Test: NCI In Vivo Anticancer Drug Screen. Data for tumor model P388 Leukemia (intraperitoneal) in B6D2F1 (BDF1) mice
Conditions: endpoint: median survival time, higher = longer survival
How it was run: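 Mice carrying the transplantable tumour receive compound or vehicle. Survival is followed in each arm, and the treated measure is divided by the vehicle measure.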

[1] = dose: 200.0 mg/kg/injection, schedule: Q04DX003 (ip), vehicle: saline with Tween-80
[2] = dose: 100.0 mg/kg/injection, schedule: Q04DX003 (ip), vehicle: saline with Tween-80
[3] = dose: 400.0 mg/kg/injection, schedule: Q04DX003 (ip), vehicle: saline with Tween-80
[4] = dose: 100.0 mg/kg/injection, schedule: Q01DX009 (ip), vehicle: saline with Tween-80
[5] = dose: 100.0 mg/kg/injection, schedule: Q04DX003 (ip), vehicle: saline
[6] = dose: 200.0 mg/kg/injection, schedule: Q04DX003 (ip), vehicle: saline
[7] = dose: 50.0 mg/kg/injection, schedule: Q01DX009 (ip), vehicle: saline with Tween-80
[8] = dose: 100.0 mg/kg/injection, schedule: Q04DX003 (ip), vehicle: saline sonified
[9] = dose: 25.0 mg/kg/injection, schedule: Q01DX009 (ip), vehicle: saline
[10] = dose: 12.5 mg/kg/injection, schedule: Q01DX009 (ip), vehicle: saline with Tween-80
[11] = dose: 25.0 mg/kg/injection, schedule: Q01DX009 (ip), vehicle: saline with Tween-80
[12] = dose: 200.0 mg/kg/injection, schedule: Q01DX009 (ip), vehicle: saline with Tween-80
[13] = dose: 400.0 mg/kg/injection, schedule: Q01DX009 (ip), vehicle: saline with Tween-80
[14] = dose: 6.25 mg/kg/injection, schedule: Q01DX009 (ip), vehicle: saline
[15] = dose: 12.5 mg/kg/injection, schedule: Q01DX009 (ip), vehicle: saline

`Cc1[nH]nc(C(N)=O)c1N=NN(C)C` was tested, and the T/C (dose: 132.0 mg/kg/injection, schedule: Q04DX003 (ip), vehicle: saline with Tween-80) was 182 % of control, the T/C [1] was 186 % of control and the T/C (dose: 300.0 mg/kg/injection, schedule: Q04DX003 (ip), vehicle: saline with Tween-80) was 100 % of control.
In the case of `C=C1CCN2CCCC12` (stereo unspecified), the T/C (dose: 20.0 mg/kg/injection, schedule: Q01DX010 (ip), vehicle: carboxymethylcellulose (CMC)) is reported as 110 % of control, the T/C (dose: 40.0 mg/kg/injection, schedule: Q01DX010 (ip), vehicle: carboxymethylcellulose (CMC)) is reported as 100 % of control and the T/C (dose: 80.0 mg/kg/injection, schedule: Q01DX010 (ip), vehicle: carboxymethylcellulose (CMC)) is reported as 110 % of control.
In the case of `Cc1ccc([N+](=O)[O-])cc1NC(=O)SCCOC(=O)COc1ccc(Cl)cc1Cl`, the T/C [2] is reported as 86 % of control, the T/C [1] is reported as 100 % of control and the T/C [3] is reported as 90 % of control.
In the case of `CC#CCOCC1CO1` (stereo unspecified), the T/C (dose: 66.0 mg/kg/injection, schedule: Q01DX009 (ip), vehicle: saline with Tween-80) is reported as 160 % of control, the T/C [4] is reported as 115 % of control and the T/C [5] is reported as 104 % of control. The T/C [6] was 100 % of control.
For `NC(=O)CC(N)C(=O)O` (stereo unspecified), the T/C (dose: 200.0 mg/kg/injection, schedule: Q01DX009 (ip), vehicle: saline) was 100 % of control, the T/C (dose: 200.0 mg/kg/injection, schedule: Q01DX010 (ip), vehicle: other) was 110 % of control and the T/C (dose: 400.0 mg/kg/injection, schedule: Q01DX009 (ip), vehicle: saline) was 100 % of control. The T/C (dose: 400.0 mg/kg/injection, schedule: Q01DX010 (ip), vehicle: other) was 120 % of control, the T/C (dose: 400.0 mg/kg/injection, schedule: Q01DX010 (ip), vehicle: saline with Tween-80) was 86 % of control and the T/C (dose: 800.0 mg/kg/injection, schedule: Q01DX009 (ip), vehicle: saline) was 110 % of control. The T/C (dose: 800.0 mg/kg/injection, schedule: Q01DX010 (ip), vehicle: other) was 100 % of control, the T/C (dose: 1600.0 mg/kg/injection, schedule: Q01DX009 (ip), vehicle: saline) was 115 % of control and the T/C (dose: 1600.0 mg/kg/injection, schedule: Q01DX010 (ip), vehicle: other) was 115 % of control. For the same compound, the T/C (dose: 1600.0 mg/kg/injection, schedule: Q01DX010 (ip), vehicle: saline with Tween-80) was 150 % of control.
With `COc1cc(NC(C)CCCN)c2ncccc2c1Oc1ccc(Cl)cc1` (stereo unspecified) the T/C [7] was 100 % of control.
For `COc1cc(N/C(N)=N\C(N)=NC(C)C)cc(OC)c1OC`, the T/C [8] was 95 % of control.
With `NCC(=O)O.[Cl][Ga]([Cl])[Cl]` the T/C [9] was 120 % of control.
`O=C1CCC(=O)N1CCC(=O)N(C(=O)NC1CCCCC1)C1CCCCC1` was tested, and the T/C [10] was 100 % of control, the T/C [11] was 101 % of control and the T/C [7] was 104 % of control and 111 % of control. The T/C [4] was 101 % of control, the T/C [2] was 118 % of control and the T/C [12] was 100 % of control and 123 % of control. For the same compound, the T/C [1] was 118 % of control, the T/C [13] was 111 % of control and the T/C [3] was 113 % of control.
For `CCCCN=CC(C)(C)NCCCC`, the T/C (dose: 50.0 mg/kg/injection, schedule: Q01DX009 (ip), vehicle: saline) was 91 % of control and 99 % of control, the T/C (dose: 50.0 mg/kg/injection, schedule: Q04DX003 (ip), vehicle: saline) was 103 % of control and the T/C (dose: 100.0 mg/kg/injection, schedule: Q01DX009 (ip), vehicle: saline) was 98 % of control and 107 % of control. The T/C [5] was 103 % of control and the T/C [6] was 100 % of control.
With `CCC[CH2][Sn]1([CH2]CCC)[O]OC(c2ccc(C)cc2)[O]1` (stereo unspecified) the T/C (dose: 0.38 mg/kg/injection, schedule: Q01DX009 (ip), vehicle: saline with Tween-80) was 114 % of control, the T/C (dose: 1.5 mg/kg/injection, schedule: Q01DX009 (ip), vehicle: saline with Tween-80) was 117 % of control and the T/C (dose: 3.13 mg/kg/injection, schedule: Q01DX009 (ip), vehicle: saline with Tween-80) was 123 % of control. For the same compound, the T/C (dose: 5.3 mg/kg/injection, schedule: Q01DX009 (ip), vehicle: saline with Tween-80) was 86 % of control.
With `O=[N+]([O-])C(CO)(CO)CC(F)(F)F` the T/C (dose: 3.13 mg/kg/injection, schedule: Q01DX009 (ip), vehicle: saline) was 100 % of control, the T/C (dose: 3.13 mg/kg/injection, schedule: Q04DX003 (ip), vehicle: saline) was 100 % of control and the T/C [14] was 104 % of control. The T/C (dose: 6.25 mg/kg/injection, schedule: Q04DX003 (ip), vehicle: saline) was 100 % of control and the T/C [15] was 90 % of control.
With `C1=CC2c3ccccc3C1c1ccccc12` the T/C (dose: 100.0 mg/kg/injection, schedule: Q01DX007 (sc), vehicle: olive oil, sesame oil, peanut oil) was 91 % of control, the T/C (dose: 100.0 mg/kg/injection, schedule: Q04DX003 (sc), vehicle: olive oil, sesame oil, peanut oil) was 100 % of control and the T/C (dose: 200.0 mg/kg/injection, schedule: Q01DX007 (sc), vehicle: olive oil, sesame oil, peanut oil) was 104 % of control. For the same compound, the T/C (dose: 200.0 mg/kg/injection, schedule: Q04DX003 (sc), vehicle: olive oil, sesame oil, peanut oil) was 90 % of control, the T/C (dose: 400.0 mg/kg/injection, schedule: Q01DX007 (sc), vehicle: olive oil, sesame oil, peanut oil) was 95 % of control and the T/C (dose: 400.0 mg/kg/injection, schedule: Q04DX003 (sc), vehicle: olive oil, sesame oil, peanut oil) was 110 % of control.
`CC(=O)Nc1nncs1` was tested, and the T/C (dose: 100.0 mg/kg/injection, schedule: Q01DX009 (ip), vehicle: saline sonified) was 113 % of control and the T/C (dose: 200.0 mg/kg/injection, schedule: Q01DX009 (ip), vehicle: saline sonified) was 109 % of control.
For `O=CN(c1ccccc1)c1ccccc1`, the T/C [7] was 110 % of control, the T/C (dose: 100.0 mg/kg/injection, schedule: Q01DX001 (ip), vehicle: other) was 104 % of control and the T/C [4] was 95 % of control. The T/C (dose: 100.0 mg/kg/injection, schedule: Q04DX003 (ip), vehicle: other) was 91 % of control, the T/C [5] was 95 % of control and the T/C (dose: 175.0 mg/kg/injection, schedule: Q04DX003 (ip), vehicle: saline with Tween-80) was 115 % of control. For the same compound, the T/C (dose: 200.0 mg/kg/injection, schedule: Q01DX001 (ip), vehicle: other) was 108 % of control, the T/C [12] was 100 % of control and the T/C (dose: 200.0 mg/kg/injection, schedule: Q04DX003 (ip), vehicle: other) was 116 % of control. The T/C [6] was 100 % of control, the T/C (dose: 400.0 mg/kg/injection, schedule: Q01DX001 (ip), vehicle: other) was 87 % of control and the T/C [13] was 105 % of control. For the same compound, the T/C [3] was 150 % of control and the T/C (dose: 400.0 mg/kg/injection, schedule: Q04DX003 (ip), vehicle: saline) was 86 % of control.
With `O=C(Nc1ccc([N+](=O)[O-])cc1)Nc1ccc([N+](=O)[O-])cc1` the T/C (dose: 50.0 mg/kg/injection, schedule: Q04DX003 (ip), vehicle: saline sonified) was 86 % of control, the T/C [8] was 86 % of control and the T/C (dose: 200.0 mg/kg/injection, schedule: Q04DX003 (ip), vehicle: saline sonified) was 90 % of control.
In the case of `Cc1ccc(NCCN(C)C)c2c(=O)c3ccccc3sc12`, the T/C [14] is reported as 96 % of control, the T/C (dose: 12.0 mg/kg/injection, schedule: Q04DX003 (ip), vehicle: saline) is reported as 105 % of control and the T/C [15] is reported as 103 % of control. For the same compound, the T/C (dose: 19.0 mg/kg/injection, schedule: Q04DX003 (ip), vehicle: saline) was 120 % of control, the T/C [9] was 107 % of control and the T/C (dose: 100.0 mg/kg/injection, schedule: Q04DX003 (ip), vehicle: alcohol) was 155 % of control. For the same compound, the T/C [5] was 168 % of control and 170 % of control, the T/C (dose: 150.0 mg/kg/injection, schedule: Q04DX003 (ip), vehicle: saline) was 205 % of control and the T/C (dose: 200.0 mg/kg/injection, schedule: Q04DX003 (ip), vehicle: alcohol) was 100 % of control.
For `CCCCCNC(=O)Nc1cccc(Cl)c1C`, the T/C (dose: 6.25 mg/kg/injection, schedule: Q01DX009 (ip), vehicle: saline with Tween-80) was 116 % of control, the T/C [10] was 109 % of control and the T/C [11] was 108 % of control. For the same compound, the T/C [7] was 99 % of control.
For `Cc1c[nH]c(=O)[nH]c1=O`, the T/C (dose: 390.0 mg/kg/injection, schedule: Q04DX003 (ip), vehicle: saline with Tween-80) was 98 % of control, the T/C (dose: 390.0 mg/kg/injection, schedule: Q## X003 (ip), vehicle: saline with Tween-80) was 98 % of control and the T/C (dose: 520.0 mg/kg/injection, schedule: Q04DX003 (ip), vehicle: saline with Tween-80) was 93 % of control. The T/C (dose: 520.0 mg/kg/injection, schedule: Q## X003 (ip), vehicle: saline with Tween-80) was 93 % of control.
